Several values for one entry are separate records, joined by “and”; a condition that tells them apart may be missing. Equal values may be shown once.
Legend:
Sa (Sagittaria aginashi) = assay: Other tests, perennial control; format: in vivo
transplanted rice = assay: Crop safety to transplanted rice, general; format: in vivo
[1] = tested on: Brachiaria platyphylla, Digitaria spp, Echinochloa spp, Eleusine indica, Leptochloa spp and Setaria spp; assay: Weeds effectively treated to date: grasses; format: in vivo
[2] = tested on: Ec (Echinochloa crusgalli); assay: Example 8 residual weed control, JAAPR, Japan; format: in vivo; conditions: Table 8 (Ec and Ri)
Experimental: This example describes the results of tests conducted at the JAAPR Laboratory in Japan to determine the comparative residual effect of Herbicide A vis-a-vis that of commercial rice herbicides in Japan.
In the tests according to this example, the test weed species Echinochloa crusgalli (Ec) and Rotala indica (Ri), were grown in clay loam soil having 2.3% organic matter and a percolation rate of 3 cm/day for 2 days. Herbicide A was applied to the weeds at an expected use rate of about 0.67-1.34 lbs/ac (0.75-1.5 kgs/ha) and the commercial rice herbicides, whose active ingredients are identified below, were applied at their indicated expected use rates: […]

[3] = tested on: Echinochloa crusgalli and Monochoria vaginalis; assay: Example 2 field test, overall; format: in vivo
From the text: Rice seedlings (ordinary) of Tainan No. 5 variety (japonica) were transplanted at 19 days of growth. Granular formulations of Herbicides A and B were applied at the 1 leaf stage of grass weed (4 DAT) and 2.5 leaf stage of grass weed (10 DAT).

[4] = tested on: Ammannia spp, Amaranthus retroflexus, Elatine triandra, Jussiaea decurrens, Lindernia pyxidaria, Rotala Sphenoclea zeylanica and Partulaca oleracea; assay: Weeds effectively treated to date: dicotyledonous broadleaf weeds; format: in vivo
Cc (Commelina communis) = assay: Example 7 greenhouse preemergence activity; format: in vivo
Experimental: In a further comparative study of the preemergence activity of Herbicides A and B, a variety of weeds and upland direct-seeded rice were tested under greenhouse conditions. The present invention is not concerned with the use of Herbicide A in direct-seeded rice. The primary purpose of the experimental work in this example is to compare relative herbicidal activity of Herbicides A and B against the weeds shown in Table 7; most of these weeds were not available for tests with transplanted rice. Although the relative selectivity of these herbicides in upland rice is also evident, that aspect of the tests is more or less incidental to the purpose of this example.
In this example, rice seeds and seeds of the weeds shown in Table 7 were sown in Ray silt loam soil at a depth of 0.5 inch (1.27 cm) in containers for the soil in a greenhouse. Herbicides A and B were applied to the surface of the soil at a spray volume equivalent to 20 gals/acre (187.1 liters/hectare), followed by 0.5 in (1.27 cm) of overhead irrigation. Temperature and relative humidity in the greenhouse were on the order of 85°F (29°C) and 75%, respectively. Observations were made at 21-28 days after seeding.
In Table 7 are shown the average rates of herbicide required to cause a growth reduction of 85% of the weeds ("GR85 "), and the average rate of herbicide required to cause a growth reduction of 15% ("GR15 ") of the rice plants (Oryza sativa, "Os", variety Bluebelle).

[5] = tested on: ordinary transplanted rice; assay: Example 4 field test, rice yield; format: in vivo, rice (Fortuna variety)
Experimental: (§1) In the tests described in the tables below, the herbicides were formulated and used in granular form in conventional manner. […] The commercial herbicide used was a granular product having 5% active ingredient.
(§2) In the field tests of the herbicide of this invention with transplanted rice, the rice seedlings were grown in conventional manner, by seeding the rice in a typical seedbed of sandy loam to clay soil of the country wherein the test was conducted. For laboratory and greenhouse work the seedlings were obtained by seeding rice in a mixture of soil, e.g., Ray silt loam, and peat in wood flats. For purposes of testing the herbicides on younger rice seedlings (infant or Dapog) the rice was usually allowed to grow for 6-15 days before lifting for transplanting. Older (ordinary) rice plants were usually grown for a period of about 2-3 weeks, or as much as about 7 weeks before lifting. Since the period of growth is dependent upon climatic conditions, a better measure of when to transplant the rice seedling is the leaf stage of growth; for infant or Dapog rice the seedling is lifted at the 1.5-2 leaf stage of growth, and for ordinary seedlings at the 2.5-5 leaf stage. The seedlings were then transplanted to the test plots for evaluation of the herbicide for injury against weed species present with the transplanted rice. The herbicides were then applied to the growth medium of the weeds and transplant rice, either preemergent or postemergent with respect to the weeds and postemergent with respect to the transplanted rice. Application times are designated in the tables as "DAT", meaning "days after transplant". Application rates given in the tables refer to the amount of active ingredient used.
In this example comparative field tests were conducted with Herbicides A and B on ordinary transplanted rice at Munoz, Philippines.
Twenty-one (21) day-old ordinary wet bed seedlings of the Fortuna variety were transplanted to field plots and Herbicides A and B applied at 5 DAT and 14 DAT. The field plots were overseeded with barnyardgrass (E. crusgalli) at 2 kgs/ha. Treatments were replicated four times.

[6] = tested on: Alisma canaliculatum, Aneilema japonica, Monochoria vaginalis, Commelina communis; assay: Weeds effectively treated to date: monocotyledonous broadleaf weeds; format: in vivo
[7] = tested on: Ek (Eleocharis kuroguwai); assay: Other tests, perennial control; format: in vivo
[8] = tested on: Cyperus difformis, Cyperus iria, Cyperus serotinus, Eleocharis acicularis, Eleocharis kuroguwai, Fimbristylis spp, Scirpus hotarui and Scirpus spp; assay: Weeds effectively treated to date: sedges; format: in vivo
[9] = tested on: transplanted rice (ordinary and infant seedlings); assay: Example 5 field test, rice injury
Experimental: as §1, §2
The rice seedlings were grown to the 1.7 leaf stage for infant seedlings and to the 5.5 leaf stage for ordinary seedlings. Two days after puddling the soil in which the seedlings were to be transplanted, both infant and ordinary seedlings were transplanted into plots 8.5 m^2.
The weed symbol "Obw" represents "other broadleaf weeds" of unspecified identity. Results presented in Table 5 represent the average of 2 replications.

carp = assay: Example 10 fish toxicity, Japanese protocol; format: in vivo
Experimental: In view of the importance of fish toxicological considerations, tests were conducted, using carp according to the Japanese protocol, to compare toxicity data for Herbicides A and B; results of those tests are shown in Table 10.

weeds in rice fields = conditions: prior art; cited from earlier work

## CCCCOCN(C(=O)CCl)c1c(C)cccc1C(C)(C)C [Herbicide A, n-(butoxymethyl)-6'-tert-butyl-2-chloro-o-acetotoluidide]
Sa (Sagittaria aginashi)
  activity against Sa: generally weak
Transplanted rice; 2 days before transplant (Table 6) to 14 DAT (Table 4)
  safe application timing: can safely be applied preemergence
Transplanted rice; recommended use rates
  crop injury, transplanted rice: negligible crop injury
[1]
  effectively treated grasses: effectively treated
[2]
  residual activity: over 30 days
[3]; Example 2
  period of application vs Herbicide B: could be applied over a longer period of time
[3]; control of Echinochloa crusgalli and Monochoria vaginalis
  fold more active than Herbicide B: 3-6 fold
[4]
  effectively treated dicotyledonous broadleaf weeds: effectively treated
Cc (Commelina communis)
  resistance of Cc: resistant
[5]; in vivo
  Yield (% of H.W. Check): 129% and 136% and 123% and 101% and 90% and 97% and 100%
  rice yield vs hand weeded check: only slightly lower than the hand weeded check
  rice yield vs hand weeded control: slightly more than the hand weeded control
[6]
  effectively treated monocotyledonous broadleaf weeds: effectively treated
[7]
  control of perennial Ek: fair to good
[8]
  effectively treated sedges: effectively treated
[9]; 1.0 kg/ha, 15 DAT, infant seedlings
  Injury: 0
[9]; 1.0 kg/ha, 15 DAT, ordinary seedlings
  Injury: 0
[9]; .25 kg/ha, 2 DAT, infant seedlings
  Injury: 0
[9]; .25 kg/ha, 2 DAT, ordinary seedlings
  Injury: 0
[9]; .5 kg/ha, 7 DAT, infant seedlings
  Injury: 0
[9]; .5 kg/ha, 7 DAT, ordinary seedlings
  Injury: 0
[9]; ordinary and infant seedlings
  injury to seedlings in words: Injury to neither ordinary nor infant seedlings occurred
carp; equal concentration basis
  toxicity to carp relative to Herbicide B: about one-half
carp; taking expected use rate one-third of B
  toxicity in the field relative to Herbicide B: about one-sixth

## CCCCOCN(C(=O)CCl)c1c(CC)cccc1CC [Herbicide B, n-(butoxymethyl)-2',6'-diethyl-2-chloroacetanilide, reference compound]
[5]; 1.0 kg/ha, 14 DAT
  yield vs hand weeded check: statistically significantly lower than the hand weeded check
[5]; 5 DAT, 1.0 kg/ha
  Yield (% of H.W. Check): 115%
[5]; 5 DAT, 1.5 kg/ha
  Yield (% of H.W. Check): 110%
[5]; 5 DAT, 3.0 kg/ha
  Yield (% of H.W. Check): 100%
[5]; 14 DAT, 1.0 kg/ha
  Yield (% of H.W. Check): 82%
[5]; 14 DAT, 1.5 kg/ha
  Yield (% of H.W. Check): 86%
[5]; 14 DAT, 3.0 kg/ha
  Yield (% of H.W. Check): 94%
Weeds in rice fields
  period of application: only brief periods of application
[9]; 1.5 kg/ha, 7 DAT, infant seedlings
  Injury: 10
[9]; 1.5 kg/ha, 7 DAT, ordinary seedlings
  Injury: 5

— US3955959A, “Herbicide for use in transplanted rice” (priority 1974, dated 1976)
